Source: the NIST ThermoML archive (doi:10.1016/j.jct.2012.04.026)

Assays:
[1] = wn = mass fraction of the nth substance listed; details: 313.15 K, Liquid, Vibrating tube method
[2] = refractive index (Na D-line) (dimensionless); wn = mass fraction of the nth substance listed; details: 313.15 K, Liquid, Standard Abbe refractometry
[3] = Liquid, Vibrating tube method
[4] = refractive index (Na D-line) (dimensionless); details: Liquid, Standard Abbe refractometry

CCCC[n+]1ccn(C)c1.O=S(=O)([N-]S(=O)(=O)C(F)(F)F)C(F)(F)F + CCO
Details	mass density, 101 kPa [kg/m3]	mass density, 101.3 kPa [kg/m3]	refractive index, 101 kPa	refractive index, 101.3 kPa	refractive index, 10234 kPa
[1], w2 = 0.008	1411.58	1411.58	–	–	–
[1], w2 = 0.015	1403.51	1403.51	–	–	–
[1], w2 = 0.032	1384.48	1384.48	–	–	–
[1], w2 = 0.084	1329.16	1329.16	–	–	–
[1], w2 = 0.156	1259.12	1259.12	–	–	–
[1], w2 = 0.202	1218.21	1218.21	–	–	–
[1], w2 = 0.385	1077.75	1077.75	–	–	–
[1], w2 = 0.48	1016.97	1016.97	–	–	–
[2], w2 = 0.008	–	–	1.42305	1.42305	1.42305
[2], w2 = 0.015	–	–	1.42222	1.42222	1.42222
[2], w2 = 0.032	–	–	1.41981	1.41981	1.41981
[2], w2 = 0.084	–	–	1.41301	1.41301	1.41301
[2], w2 = 0.156	–	–	1.40517	1.40517	1.40517
[2], w2 = 0.202	–	–	1.40056	1.40056	1.40056
[2], w2 = 0.385	–	–	1.38611	1.38611	1.38611
[2], w2 = 0.48	–	–	1.37983	1.37983	1.37983

CCn1cc[n+](C)c1.O=S(=O)([N-]S(=O)(=O)C(F)(F)F)C(F)(F)F
Details	mass density, [3] [kg/m3]	refractive index, [4]
298.15 K, 101.33 kPa	1518.74	1.42307
313.15 K, 101 kPa	1502.2	1.41695
313.15 K, 101.3 kPa	1502.2	–
313.15 K, 101.33 kPa	–	1.41695

CCCCCC[n+]1ccn(C)c1.O=S(=O)([N-]S(=O)(=O)C(F)(F)F)C(F)(F)F
Details	mass density, [3] [kg/m3]	refractive index, [4]
298.15 K, 101.33 kPa	1371.99	1.43016
313.15 K, 101 kPa	1356.95	1.42542
313.15 K, 101.3 kPa	1356.95	–
313.15 K, 101.33 kPa	–	1.42542

CCO [ethanol]
Details	mass density, [3] [kg/m3]	refractive index, [4]
298.15 K, 101.33 kPa	785.2	–
313.15 K, 101 kPa	773.03	1.35353
313.15 K, 101.3 kPa	773.03	–
313.15 K, 101.33 kPa	–	1.35353

CCCn1cc[n+](C)c1.O=S(=O)([N-]S(=O)(=O)C(F)(F)F)C(F)(F)F
Details	mass density, [3] [kg/m3]	refractive index, [4]
298.15 K, 101.33 kPa	1473.97	1.42525
313.15 K, 101 kPa	1458.33	1.42016
313.15 K, 101.3 kPa	1458.33	–
313.15 K, 101.33 kPa	–	1.42016

CCCn1cc[n+](C)c1.O=S(=O)([N-]S(=O)(=O)C(F)(F)F)C(F)(F)F + CCO
Details	mass density, 101 kPa [kg/m3]	mass density, 101.3 kPa [kg/m3]	refractive index, 101 kPa	refractive index, 101.3 kPa	refractive index, 10234 kPa
[1], w2 = 0.019	1433.96	1433.96	–	–	–
[1], w2 = 0.035	1414.83	1414.83	–	–	–
[1], w2 = 0.082	1362.5	1362.5	–	–	–
[1], w2 = 0.133	1309.15	1309.15	–	–	–
[1], w2 = 0.186	1256.95	1256.95	–	–	–
[1], w2 = 0.267	1183.97	1183.97	–	–	–
[1], w2 = 0.55	983.52	983.52	–	–	–
[2], w2 = 0.019	–	–	1.41801	1.41801	1.41801
[2], w2 = 0.035	–	–	1.4161	1.4161	1.4161
[2], w2 = 0.082	–	–	1.41105	1.41105	1.41105
[2], w2 = 0.133	–	–	1.40604	1.40604	1.40604
[2], w2 = 0.186	–	–	1.40101	1.40101	1.40101
[2], w2 = 0.267	–	–	1.39403	1.39403	1.39403
[2], w2 = 0.55	–	–	1.37499	1.37499	1.37499

CCn1cc[n+](C)c1.O=S(=O)([N-]S(=O)(=O)C(F)(F)F)C(F)(F)F + CCO
Details	mass density, 101 kPa [kg/m3]	mass density, 101.3 kPa [kg/m3]	refractive index, 101 kPa	refractive index, 101.3 kPa	refractive index, 10234 kPa
[1], w2 = 0.014	1481.64	1481.64	–	–	–
[1], w2 = 0.034	1456.07	1456.07	–	–	–
[1], w2 = 0.072	1409.69	1409.69	–	–	–
[1], w2 = 0.126	1347.49	1347.49	–	–	–
[1], w2 = 0.278	1195.34	1195.34	–	–	–
[1], w2 = 0.324	1155.44	1155.44	–	–	–
[1], w2 = 0.635	943.07	943.07	–	–	–
[2], w2 = 0.014	–	–	1.41547	1.41547	1.41547
[2], w2 = 0.034	–	–	1.41333	1.41333	1.41333
[2], w2 = 0.072	–	–	1.40945	1.40945	1.40945
[2], w2 = 0.126	–	–	1.40425	1.40425	1.40425
[2], w2 = 0.278	–	–	1.3915	1.3915	1.3915
[2], w2 = 0.324	–	–	1.38812	1.38812	1.38812
[2], w2 = 0.635	–	–	1.36939	1.36939	1.36939

CCCCCCC [heptane]
298.15 K, 101.33 kPa
Details	mass density [kg/m3]	refractive index
[3]	679.57	–
[4]	–	1.38529

CCCC[n+]1ccn(C)c1.O=S(=O)([N-]S(=O)(=O)C(F)(F)F)C(F)(F)F
Details	mass density, [3] [kg/m3]	refractive index, [4]
298.15 K, 101.33 kPa	1436.1	1.42672
313.15 K, 101 kPa	1420.7	1.42437
313.15 K, 101.3 kPa	1420.7	–
313.15 K, 101.33 kPa	–	1.42437

CCCCCC[n+]1ccn(C)c1.O=S(=O)([N-]S(=O)(=O)C(F)(F)F)C(F)(F)F + CCO
Details	mass density, 101 kPa [kg/m3]	mass density, 101.3 kPa [kg/m3]	refractive index, 101 kPa	refractive index, 101.3 kPa	refractive index, 10234 kPa
[1], w2 = 0.099	1270.96	1270.96	–	–	–
[1], w2 = 0.231	1161.07	1161.07	–	–	–
[1], w2 = 0.328	1092.32	1092.32	–	–	–
[1], w2 = 0.529	973.37	973.37	–	–	–
[1], w2 = 0.646	914.93	914.93	–	–	–
[1], w2 = 0.74	872.96	872.96	–	–	–
[1], w2 = 0.901	808.24	808.24	–	–	–
[2], w2 = 0.099	–	–	1.41392	1.41392	1.41392
[2], w2 = 0.231	–	–	1.40128	1.40128	1.40128
[2], w2 = 0.328	–	–	1.39325	1.39325	1.39325
[2], w2 = 0.529	–	–	1.37912	1.37912	1.37912
[2], w2 = 0.646	–	–	1.37165	1.37165	1.37165
[2], w2 = 0.74	–	–	1.36626	1.36626	1.36626
[2], w2 = 0.901	–	–	1.35782	1.35782	1.35782
